Source: PubChem BioAssay AID1963437 (Molecular Pharmacology Branch, DTP, NCI, 2024)

Tested on: OVCAR-8 complex spheroid, growth inhibition
Experiment: Anticancer human tumor OVCAR-8 cell line growth inhibition [Asc];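 also: spheroids exposed to agents for 7 days before readout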;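 as to viability, T/C: percent viability relative to DMSO vehicle wells taken as 100%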
Settings: for IC50: curve of first compound; for viability, T/C: stronger effect = lower value; active = viability on the fitted dose curve at most 10% of control; inactive = the rest
Summary of the method: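 Stromal components (HUVEC and hMSC) are co-assembled with the cancer cells into multicellular spheroids. Drugs are then added singly or paired, at concentrations falling by half-log increments from a clinically achievable maximum, capped at 10 microM without known Cmax.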

[1] = second compound 0.00316 µM, first compound 0.00949 µM
[2] = second compound 0.00316 µM, first compound 0.03 µM
[3] = second compound 0.00316 µM, first compound 0.0949 µM
[4] = second compound 0.00316 µM, first compound 0.3 µM
[5] = second compound 0.00316 µM, first compound 0.949 µM
[6] = second compound 0.00316 µM, first compound 3 µM
[7] = second compound 0.01 µM, first compound 0.00949 µM
[8] = second compound 0.01 µM, first compound 0.03 µM
[9] = second compound 0.01 µM, first compound 0.0949 µM
[10] = second compound 0.01 µM, first compound 0.3 µM
[11] = second compound 0.01 µM, first compound 0.949 µM
[12] = second compound 0.01 µM, first compound 3 µM
[13] = second compound 0.0316 µM, first compound 0.00949 µM
[14] = second compound 0.0316 µM, first compound 0.03 µM
[15] = second compound 0.0316 µM, first compound 0.0949 µM
[16] = second compound 0.0316 µM, first compound 0.3 µM
[17] = second compound 0.0316 µM, first compound 0.949 µM
[18] = second compound 0.0316 µM, first compound 3 µM
[19] = second compound 0.1 µM, first compound 0.00949 µM
[20] = second compound 0.1 µM, first compound 0.03 µM
[21] = second compound 0.1 µM, first compound 0.0949 µM
[22] = second compound 0.1 µM, first compound 0.3 µM
[23] = second compound 0.1 µM, first compound 0.949 µM
[24] = second compound 0.1 µM, first compound 3 µM
[25] = second compound 0.316 µM, first compound 0.00949 µM
[26] = second compound 0.316 µM, first compound 0.03 µM
[27] = second compound 0.316 µM, first compound 0.0949 µM
[28] = second compound 0.316 µM, first compound 0.3 µM
[29] = second compound 0.316 µM, first compound 0.949 µM
[30] = second compound 0.316 µM, first compound 3 µM
[31] = second compound 1 µM, first compound 0.00949 µM
[32] = second compound 1 µM, first compound 0.03 µM
[33] = second compound 1 µM, first compound 0.0949 µM
[34] = second compound 1 µM, first compound 0.3 µM
[35] = second compound 1 µM, first compound 0.949 µM
[36] = second compound 1 µM, first compound 3 µM

CCN1C(C(=O)NC23CCC(C(=O)O)(CC2)CC3)C(c2cccc(Cl)c2F)C2(C(=O)Nc3cc(Cl)ccc32)C12CCCCC2 (centres undefined) + CNC(C)C(=O)NC1CN(S(=O)(=O)c2cccc(S(=O)(=O)N3CCC4CCC(C(=O)NC(c5ccccc5)c5ccccc5)N4C(=O)C(NC(=O)C(C)NC)C3)c2)CCC2CCC(C(=O)NC(c3ccccc3)c3ccccc3)N2C1=O
inactive: viability, T/C [1] 119% | viability, T/C [2] 96.5% | viability, T/C [3] 104% | viability, T/C [4] 97.9% | viability, T/C [5] 106% | viability, T/C [6] 110% | viability, T/C [7] 98.4% | viability, T/C [8] 91.1% | viability, T/C [9] 95% | viability, T/C [10] 84.8% | viability, T/C [11] 105% | viability, T/C [12] 107% | viability, T/C [13] 85.4% | viability, T/C [14] 86.9% | viability, T/C [15] 92.7% | viability, T/C [16] 102% | viability, T/C [17] 102% | viability, T/C [18] 118% | viability, T/C [19] 85.3% | viability, T/C [20] 78.3% | viability, T/C [21] 99.8% | viability, T/C [22] 88.1% | viability, T/C [23] 118% | viability, T/C [24] 103% | viability, T/C [25] 98.8% | viability, T/C [26] 86.5% | viability, T/C [27] 90.2% | viability, T/C [28] 78.3% | viability, T/C [29] 90.4% | viability, T/C [30] 97.5% | viability, T/C [31] 80.5% | viability, T/C [32] 79.2% | viability, T/C [33] 95.7% | viability, T/C [34] 84.2% | viability, T/C [35] 93.3% | viability, T/C [36] 112%
> 3 µM: IC50 (second compound 0.00316 µM) | IC50 (second compound 0.01 µM) | IC50 (second compound 0.0316 µM) | IC50 (second compound 0.1 µM) | IC50 (second compound 0.316 µM) | IC50 (second compound 1 µM)

Cc1nc(N2CCC3(CC2)COC(C)C3N)c(CO)nc1Sc1ccnc(N)c1Cl (centres undefined) + CNC(C)C(=O)NC1CN(S(=O)(=O)c2cccc(S(=O)(=O)N3CCC4CCC(C(=O)NC(c5ccccc5)c5ccccc5)N4C(=O)C(NC(=O)C(C)NC)C3)c2)CCC2CCC(C(=O)NC(c3ccccc3)c3ccccc3)N2C1=O
> 3 µM: IC50 (second compound 0.00316 µM) | IC50 (second compound 0.01 µM) | IC50 (second compound 0.0316 µM) | IC50 (second compound 0.1 µM) | IC50 (second compound 0.316 µM) | IC50 (second compound 1 µM)
inactive: viability, T/C [1] 130% | viability, T/C [2] 136% | viability, T/C [3] 208% | viability, T/C [4] 235% | viability, T/C [5] 260% | viability, T/C [6] 245% | viability, T/C [7] 111% | viability, T/C [8] 130% | viability, T/C [9] 163% | viability, T/C [10] 251% | viability, T/C [11] 263% | viability, T/C [12] 237% | viability, T/C [13] 93% | viability, T/C [14] 130% | viability, T/C [15] 166% | viability, T/C [16] 205% | viability, T/C [17] 248% | viability, T/C [18] 224% | viability, T/C [19] 86.7% | viability, T/C [20] 111% | viability, T/C [21] 155% | viability, T/C [22] 166% | viability, T/C [23] 208% | viability, T/C [24] 171% | viability, T/C [25] 70.7% | viability, T/C [26] 82.6% | viability, T/C [27] 109% | viability, T/C [28] 169% | viability, T/C [29] 140% | viability, T/C [30] 110% | viability, T/C [31] 81.5% | viability, T/C [32] 95.1% | viability, T/C [33] 119% | viability, T/C [34] 123% | viability, T/C [35] 116% | viability, T/C [36] 75.1%
